Test results published in ChEMBL document CHEMBL1201862, “PubChem BioAssay data set” (2004).
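Cultured in 96-well plates, cells were exposed to test compound for 48 hours across five concentrations. GI50 = concentration required for 50% inhibition of growth.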 Activity calls are given as the source filed them. Cut-off read from the data, not from the text of the source: active = GI50 up to about 1.1 µM and inactive = higher.

Experiments:
Assay in all cases: DTP human tumour cell line panel, 48 h
SF-295 = test system: SF-295
T47D = test system: T47D
UACC-62 = test system: UACC-62
OVCAR-5 = test system: OVCAR-5
HCT-15 = test system: HCT-15
SF-539 = test system: SF-539
RXF 393 = test system: RXF 393
M14 = test system: M14
HCT-116 = test system: HCT-116
KM12 = test system: KM12
ACHN = test system: ACHN
NCI-H522 = test system: NCI-H522
SK-MEL-2 = test system: SK-MEL-2
SK-MEL-5 = test system: SK-MEL-5
HT-29 = test system: HT-29
UACC-257 = test system: UACC-257
CAKI-1 = test system: CAKI-1
SF-268 = test system: SF-268
SNB-75 = test system: SNB-75
OVCAR-8 = test system: OVCAR-8
SNB-19 = test system: SNB-19
SN12C = test system: SN12C
K562 = test system: K562
UO-31 = test system: UO-31
NCI-H23 = test system: NCI-H23
A549 = test system: A549
CCRF-CEM = test system: CCRF-CEM
MCF7 = test system: MCF7
HL-60 = test system: HL-60
NCI-H460 = test system: NCI-H460
LOX IMVI = test system: LOX IMVI
HOP-92 = test system: HOP-92
OVCAR-4 = test system: OVCAR-4
PC-3 = test system: PC-3
BT-549 = test system: BT-549
HCC 2998 = test system: HCC 2998
MOLT-4 = test system: MOLT-4
MDA-MB-435 = test system: MDA-MB-435
Hs-578T = test system: Hs-578T
IGROV-1 = test system: IGROV-1
U-251 = test system: U-251
MDA-N = test system: MDA-N
OVCAR-3 = test system: OVCAR-3
SK-OV-3 = test system: SK-OV-3
SK-MEL-28 = test system: SK-MEL-28
RPMI-8226 = test system: RPMI-8226
Malme-3M = test system: Malme-3M
HOP-62 = test system: HOP-62
DU-145 = test system: DU-145
NCI-H226 = test system: NCI-H226
COLO 205 = test system: COLO 205
NCI/ADR-RES = test system: NCI/ADR-RES
SR = test system: SR
SW-620 = test system: SW-620
TK-10 = test system: TK-10
786-0 = test system: 786-0
MDA-MB-231 = test system: MDA-MB-231

CC1CC[P+](c2ccccc2)(c2ccccc2)c2c1ccc1ccccc21 (stereo not given)
GI50 (SF-295): 3.33 µM (inactive)
GI50 (T47D): 0.698 µM (active)
GI50 (UACC-62): 4.13 µM (inactive)
GI50 (OVCAR-5): 5.81 µM (inactive)
GI50 (HCT-15): 40.5 µM
GI50 (SF-539): 4.82 µM (inactive)
GI50 (RXF 393): 9.77 µM (inactive)
GI50 (M14): 5.89 µM (inactive)
GI50 (HCT-116): 2.67 µM (inactive)
GI50 (KM12): 3.13 µM (inactive)
GI50 (ACHN): 14 µM (inactive)
GI50 (NCI-H522): 1.16 µM (inactive)
GI50 (SK-MEL-2): 1.79 µM (inactive)
GI50 (SK-MEL-5): 1.34 µM (inactive)
GI50 (HT-29): 2.32 µM (inactive)
GI50 (UACC-257): 0.607 µM (active)
GI50 (CAKI-1): 7.85 µM (inactive)
GI50 (SF-268): 7.89 µM (inactive)
GI50 (SNB-75): 1.79 µM (inactive)
GI50 (OVCAR-8): 2.44 µM (inactive)
GI50 (SNB-19): 4.07 µM (inactive)
GI50 (SN12C): 3.94 µM (inactive)
GI50 (K562): 0.942 µM (active)
GI50 (UO-31): 27 µM (inactive)
GI50 (NCI-H23): 2.4 µM (inactive)
GI50 (A549): 9.1 µM (inactive)
GI50 (CCRF-CEM): 4.3 µM (inactive)
GI50 (MCF7): 2.14 µM (inactive)
GI50 (HL-60): 2.51 µM (inactive)
GI50 (NCI-H460): 2.64 µM (inactive)
GI50 (LOX IMVI): 2.25 µM (inactive)
GI50 (HOP-92): 1.15 µM (inactive)
GI50 (OVCAR-4): 12.6 µM (inactive)
GI50 (PC-3): 1.51 µM (inactive)
GI50 (BT-549): 1.23 µM (inactive)
GI50 (HCC 2998): 6.12 µM (inactive)
GI50 (MOLT-4): 6.75 µM (inactive)
GI50 (MDA-MB-435): 2.78 µM (inactive)
GI50 (Hs-578T): 1.79 µM (inactive)

CCOC(=O)CCC(NC(=O)OCc1ccccc1)C(=O)NC(CCC(=O)OCC)C(=O)NNC(=O)OC(C)(C)C (stereo not given)
GI50 (IGROV-1): > 100 µM (inactive)
GI50 (SF-295): > 100 µM (inactive)
GI50 (T47D): > 100 µM (inactive)
GI50 (U-251): > 100 µM (inactive)
GI50 (UACC-62): > 100 µM (inactive)
GI50 (MDA-N): > 100 µM (inactive)
GI50 (OVCAR-5): > 100 µM (inactive)
GI50 (HCT-15): > 100 µM
GI50 (RXF 393): 18.7 µM (inactive)
GI50 (M14): > 100 µM (inactive)
GI50 (HCT-116): > 100 µM (inactive)
GI50 (KM12): > 100 µM (inactive)
GI50 (OVCAR-3): > 100 µM (inactive)
GI50 (SK-OV-3): > 100 µM (inactive)
GI50 (NCI-H522): > 100 µM (inactive)
GI50 (SK-MEL-28): > 100 µM (inactive)
GI50 (SK-MEL-2): > 100 µM (inactive)
GI50 (SK-MEL-5): > 100 µM (inactive)
GI50 (CAKI-1): > 100 µM (inactive)
GI50 (RPMI-8226): > 100 µM (inactive)
GI50 (Malme-3M): > 100 µM (inactive)
GI50 (SNB-75): > 100 µM (inactive)
GI50 (OVCAR-8): > 100 µM (inactive)
GI50 (HOP-62): > 100 µM (inactive)
GI50 (SNB-19): > 100 µM (inactive)
GI50 (SN12C): > 100 µM (inactive)
GI50 (K562): > 100 µM (inactive)
GI50 (UO-31): > 100 µM (inactive)
GI50 (NCI-H23): > 100 µM (inactive)
GI50 (CCRF-CEM): 38.5 µM (inactive)
GI50 (MCF7): > 100 µM (inactive)
GI50 (DU-145): > 100 µM (inactive)
GI50 (NCI-H226): 36.6 µM (inactive)
GI50 (HL-60): > 100 µM (inactive)
GI50 (COLO 205): > 100 µM (inactive)
GI50 (NCI-H460): > 100 µM (inactive)
GI50 (NCI/ADR-RES): > 100 µM (inactive)
GI50 (SR): > 100 µM (inactive)
GI50 (HOP-92): > 100 µM (inactive)
GI50 (PC-3): 38.8 µM (inactive)
GI50 (BT-549): > 100 µM (inactive)
GI50 (HCC 2998): > 100 µM (inactive)
GI50 (MOLT-4): 28.2 µM (inactive)
GI50 (MDA-MB-435): > 100 µM (inactive)
GI50 (Hs-578T): > 100 µM (inactive)

CC(C(=O)N1C(=O)N(C(=O)C(C)C(O)c2ccccc2)C(c2ccccc2)C1c1ccccc1)C(O)c1ccccc1 (stereo not given)
GI50 (IGROV-1): 12.7 µM (inactive)
GI50 (SF-295): 2.84 µM (inactive)
GI50 (T47D): 6.47 µM (inactive)
GI50 (U-251): 10.4 µM (inactive)
GI50 (UACC-62): 10.5 µM (inactive)
GI50 (MDA-N): > 10 µM (inactive)
GI50 (HCT-15): 15.5 µM
GI50 (SF-539): 6.25 µM (inactive)
GI50 (RXF 393): 6.21 µM (inactive)
GI50 (M14): 10.5 µM (inactive)
GI50 (HCT-116): 6.21 µM (inactive)
GI50 (KM12): 3.34 µM (inactive)
GI50 (OVCAR-3): 5.94 µM (inactive)
GI50 (ACHN): 6.7 µM (inactive)
GI50 (NCI-H522): 7.19 µM (inactive)
GI50 (SK-MEL-28): 15.8 µM (inactive)
GI50 (SK-MEL-2): 10.2 µM (inactive)
GI50 (SW-620): 28.7 µM (inactive)
GI50 (SK-MEL-5): > 10 µM (inactive)
GI50 (HT-29): 5 µM (inactive)
GI50 (RPMI-8226): 4.01 µM (inactive)
GI50 (SF-268): 13.4 µM (inactive)
GI50 (Malme-3M): 12.2 µM (inactive)
GI50 (SNB-75): 3.9 µM (inactive)
GI50 (OVCAR-8): 7.98 µM (inactive)
GI50 (TK-10): 22.6 µM (inactive)
GI50 (HOP-62): 12.3 µM (inactive)
GI50 (SNB-19): 5.52 µM (inactive)
GI50 (SN12C): 12.9 µM (inactive)
GI50 (K562): 4.47 µM (inactive)
GI50 (UO-31): 5.33 µM (inactive)
GI50 (NCI-H23): 16.5 µM (inactive)
GI50 (A549): 4.85 µM (inactive)
GI50 (CCRF-CEM): 5.56 µM (inactive)
GI50 (786-0): 26.1 µM (inactive)
GI50 (MCF7): 4.43 µM (inactive)
GI50 (DU-145): 21.3 µM (inactive)
GI50 (NCI-H226): 12.4 µM (inactive)
GI50 (HL-60): 2.27 µM (inactive)
GI50 (COLO 205): 13.3 µM (inactive)
GI50 (NCI-H460): 4.25 µM (inactive)
GI50 (LOX IMVI): 11.9 µM (inactive)
GI50 (SR): 3.61 µM (inactive)
GI50 (HOP-92): 5.92 µM (inactive)
GI50 (OVCAR-4): 13.4 µM (inactive)
GI50 (BT-549): 12.6 µM (inactive)
GI50 (HCC 2998): 20.9 µM (inactive)
GI50 (MDA-MB-231): 16.6 µM (inactive)
GI50 (MOLT-4): 3.66 µM (inactive)
GI50 (MDA-MB-435): 15 µM (inactive)
GI50 (Hs-578T): 11.1 µM (inactive)
